Source: the supplement of paper PMC10307832

How the values were obtained:
Experiment in all cases: relative viability (nuclei count vs DMSO), 5 days (fraction); higher = more cells survive
[1] = compound: C1=CC(=CC=C1C2=CC(=C(S2)NC(=O)N)C(=O)N)F [TPCA-1] + O=C(c1cc(Cc2n[nH]c(=O)c3ccccc23)ccc1F)N1CCN(C(=O)C2CC2)CC1 [Olaparib] (partner 8 µM)
Summary of the method: (§1)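 Nuclei were stained with Hoechst during a one-step fixation (final 0.05% Triton X-100, 1% formaldehyde, 1 ug/ml Hoechst) carried out 5 days after dosing, then counted on 4× images. The cells, lung cancer lines in 1536-well plates, had been dosed by pin tool the day after seeding with one drug alone or a fixed anchor-drug dose plus five library-drug doses (not always all listed) in √10 steps. Relative viability is the nuclei count in treated wells divided by that in vehicle wells, and each value is the median of duplicate plates.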

[2] = compound: C1=CC(=CC=C1C2=CC(=C(S2)NC(=O)N)C(=O)N)F [TPCA-1] + Nc1nc2[nH]cc(CCc3ccc(C(=O)N[C@@H](CCC(=O)O)C(=O)O)cc3)c2c(=O)[nH]1 [Pemetrexed] (partner 0.2 µM)
Summary of the method: as §1

[3] = compound: C1/C(=C\C2=CC=CS2)/C(=O)/C(=C/C3=CC=CS3)/C1 + O=C(c1cc(Cc2n[nH]c(=O)c3ccccc23)ccc1F)N1CCN(C(=O)C2CC2)CC1 [Olaparib] (partner 8 µM)
Summary of the method: as §1

[4] = compound: C1=CC(=CC=C1C2=CC(=C(S2)NC(=O)N)C(=O)N)F [TPCA-1] + N=C(N)NC(=N)NCCc1ccccc1 [Phenformin] (partner 250 µM)
Summary of the method: as §1

| Cell Line | relative viability ([1]; first compound 0.04 µM) | relative viability ([1]; first compound 0.1265 µM) | relative viability ([1]; first compound 0.4 µM) | relative viability ([1]; first compound 1.265 µM) | relative viability ([1]; first compound 4 µM) | relative viability ([2]; first compound 0.04 µM) | relative viability ([2]; first compound 0.1265 µM) | relative viability ([2]; first compound 0.4 µM) | relative viability ([2]; first compound 1.265 µM) | relative viability ([2]; first compound 4 µM) | relative viability ([3]; first compound 0.2 µM) | relative viability ([3]; first compound 0.6325 µM) | relative viability ([3]; first compound 2 µM) | relative viability ([3]; first compound 6.325 µM) | relative viability ([3]; first compound 20 µM) | relative viability ([4]; first compound 0.04 µM) | relative viability ([4]; first compound 0.1265 µM) | relative viability ([4]; first compound 0.4 µM) | relative viability ([4]; first compound 1.265 µM) | relative viability ([4]; first compound 4 µM) |
| --- | --- | --- | --- | --- | --- | --- | --- | --- | --- | --- | --- | --- | --- | --- | --- | --- | --- | --- | --- | --- |
| LOU-NH91 | 0.885 | 0.846 | 0.922 | 0.94 | 0.773 | 0.399 | 0.376 | 0.389 | 0.392 | 0.532 | 0.943 | 0.899 | 0.915 | 0.872 | 0.928 | 0.712 | 0.677 | 0.73 | 0.599 | 0.664 |
| NCI-H441 | 0.461 | 0.454 | 0.53 | 0.443 | 0.436 | 0.247 | 0.257 | 0.258 | 0.24 | 0.242 | 0.556 | 0.493 | 0.532 | 0.404 | 0.569 | 1.15 | 0.688 | 0.934 | 0.703 | 0.283 |
| NCI-H647 | 0.763 | 0.437 | 0.66 | 0.525 | 0.358 | 0.177 | 0.172 | 0.183 | 0.163 | 0.182 | 0.776 | 0.482 | 0.433 | 0.501 | 0.573 | 0.557 | 0.484 | 0.614 | 0.38 | 0.151 |
| NCI-H1915 | 0.28 | 0.266 | 0.26 | 0.274 | 0.219 | 0.532 | 0.507 | 0.509 | 0.46 | 0.371 | 0.264 | 0.247 | 0.307 | 0.241 | 0.26 | 0.403 | 0.362 | 0.385 | 0.321 | 0.289 |
| NCI-H1734 | 0.648 | 0.559 | 0.692 | 0.561 | 0.463 | 0.41 | 0.413 | 0.41 | 0.48 | 0.362 | 0.621 | 0.597 | 0.596 | 0.528 | 0.629 | 0.42 | 0.363 | 0.42 | 0.391 | 0.287 |
| NCI-H1993 | 1.23 | 1.03 | 0.958 | 1.07 | 0.99 | 0.613 | 0.547 | 0.564 | 0.628 | 0.503 | 1.1 | 0.969 | 1.17 | 0.958 | 0.85 | 0.425 | 0.536 | 0.55 | 0.421 | 0.485 |
| LK-2 | 0.68 | 0.371 | 0.516 | 0.741 | 0.335 | 0.268 | – | 0.253 | 0.232 | 0.141 | 0.769 | 0.787 | 0.765 | 0.853 | 0.753 | 0.868 | 0.236 | 0.444 | 0.603 | 0.206 |
| HCC-78 | 0.917 | 0.844 | 0.892 | 1.01 | 0.493 | 0.919 | 0.911 | 0.932 | 0.885 | 0.9 | 0.794 | 0.872 | 0.906 | 0.87 | 0.81 | 0.724 | 0.732 | 0.657 | 0.693 | 0.436 |
